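Assay format: 96-well plates, 48-hour exposure. The concentration for 50% growth inhibition is given as GI50. TGI marks complete inhibition of growth.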
Tests used:
Experiment in all cases: NCI-60 cell line screen, 48 h
CCRF-CEM leukemia = system: CCRF-CEM leukemia
UACC-62 melanoma = system: UACC-62 melanoma
T-47D breast = system: T-47D breast
HCC-2998 colon = system: HCC-2998 colon
MALME-3M melanoma = system: MALME-3M melanoma
786-0 renal = system: 786-0 renal
OVCAR-5 ovarian = system: OVCAR-5 ovarian
SF-539 CNS = system: SF-539 CNS
EKVX NSCLC = system: EKVX NSCLC
NCI-H23 lung = system: NCI-H23 lung
BT-549 breast = system: BT-549 breast
SF-268 CNS = system: SF-268 CNS
HCT-15 colon = system: HCT-15 colon
U251 CNS = system: U251 CNS
ACHN renal = system: ACHN renal
SK-MEL-28 melanoma = system: SK-MEL-28 melanoma
OVCAR-8 ovarian = system: OVCAR-8 ovarian
SNB-75 CNS = system: SNB-75 CNS
A498 renal = system: A498 renal
UO-31 renal = system: UO-31 renal
HL-60(TB) leukemia = system: HL-60(TB) leukemia
CAKI-1 renal = system: CAKI-1 renal
MDA-MB-231 breast = system: MDA-MB-231 breast
UACC-257 melanoma = system: UACC-257 melanoma
KM12 colon = system: KM12 colon
SN12C renal = system: SN12C renal
MOLT-4 leukemia = system: MOLT-4 leukemia
K-562 leukemia = system: K-562 leukemia
OVCAR-3 ovarian = system: OVCAR-3 ovarian
A549 NSCLC = system: A549 NSCLC
SR leukemia = system: SR leukemia
COLO 205 colon = system: COLO 205 colon
SNB-19 CNS = system: SNB-19 CNS
OVCAR-4 ovarian = system: OVCAR-4 ovarian
SF-295 CNS = system: SF-295 CNS
HCT-116 colon = system: HCT-116 colon
M14 melanoma = system: M14 melanoma
HS 578T breast = system: HS 578T breast
MDA-MB-435 = system: MDA-MB-435
PC-3 prostate = system: PC-3 prostate
HT29 colon = system: HT29 colon
NCI-H226 lung = system: NCI-H226 lung
DU-145 prostate = system: DU-145 prostate
NCI-H522 lung = system: NCI-H522 lung
LOX IMVI melanoma = system: LOX IMVI melanoma
HOP-62 NSCLC = system: HOP-62 NSCLC
NCI/ADR-RES ovarian = system: NCI/ADR-RES ovarian
SK-MEL-5 melanoma = system: SK-MEL-5 melanoma
NCI-H460 lung = system: NCI-H460 lung
SK-OV-3 ovarian = system: SK-OV-3 ovarian
RPMI-8226 leukemia = system: RPMI-8226 leukemia
IGROV1 ovarian = system: IGROV1 ovarian
RXF 393 renal = system: RXF 393 renal
SW-620 colon = system: SW-620 colon
HOP-92 NSCLC = system: HOP-92 NSCLC
MCF7 breast = system: MCF7 breast

`Cc1nc2sc(C(=O)Nc3cccc(Cl)c3C)c(N)c2cc1C(C)O` (stereo unspecified) was tested, and the GI50 (CCRF-CEM leukemia) was 115 nM, the TGI (CCRF-CEM leukemia) was over 54700 nM and the GI50 (UACC-62 melanoma) was 85.2 nM. For the same molecule, the TGI (UACC-62 melanoma) was 44900 nM, the GI50 (T-47D breast) was 443 nM and the TGI (T-47D breast) was over 100000 nM. For the same molecule, the GI50 (HCC-2998 colon) was 532 nM, the TGI (HCC-2998 colon) was 26300 nM and the GI50 (MALME-3M melanoma) was 1110 nM. The TGI (MALME-3M melanoma) was 37500 nM, the GI50 (786-0 renal) was 449 nM and the TGI (786-0 renal) was over 49200 nM. It also gave a GI50 (OVCAR-5 ovarian) of 700 nM, a TGI (OVCAR-5 ovarian) of over 74800 nM and a GI50 (SF-539 CNS) of 181 nM. The TGI (SF-539 CNS) was 1900 nM, the GI50 (EKVX NSCLC) was 533 nM and the TGI (EKVX NSCLC) was over 77000 nM. For the same molecule, the GI50 (NCI-H23 lung) was 567 nM, the TGI (NCI-H23 lung) was over 56600 nM and the GI50 (BT-549 breast) was 475 nM. The TGI (BT-549 breast) was over 32300 nM, the GI50 (SF-268 CNS) was 5750 nM and the TGI (SF-268 CNS) was over 82200 nM. The GI50 (HCT-15 colon) was 91 nM, the TGI (HCT-15 colon) was over 39600 nM and the GI50 (U251 CNS) was 223 nM. The TGI (U251 CNS) was over 39200 nM, the GI50 (ACHN renal) was 630 nM and the TGI (ACHN renal) was over 50100 nM. For the same molecule, the GI50 (SK-MEL-28 melanoma) was 5800 nM, the TGI (SK-MEL-28 melanoma) was over 55600 nM and the GI50 (OVCAR-8 ovarian) was 396 nM. The TGI (OVCAR-8 ovarian) was over 71700 nM, the GI50 (SNB-75 CNS) was 97 nM and the TGI (SNB-75 CNS) was over 42100 nM. For the same molecule, the GI50 (A498 renal) was 17.3 nM, the TGI (A498 renal) was 544 nM and the GI50 (UO-31 renal) was 610 nM. For the same molecule, the TGI (UO-31 renal) was 29200 nM, the GI50 (HL-60(TB) leukemia) was 92 nM and the GI50 (CAKI-1 renal) was 334 nM. The TGI (CAKI-1 renal) was over 100000 nM, the GI50 (MDA-MB-231 breast) was 547 nM and the TGI (MDA-MB-231 breast) was 46500 nM. It also gave a GI50 (UACC-257 melanoma) of 20200 nM, a TGI (UACC-257 melanoma) of over 51600 nM and a GI50 (KM12 colon) of 175 nM. The TGI (KM12 colon) was over 41100 nM, the GI50 (SN12C renal) was 916 nM and the TGI (SN12C renal) was over 47400 nM. For the same molecule, the GI50 (MOLT-4 leukemia) was 151 nM, the TGI (MOLT-4 leukemia) was over 42700 nM and the GI50 (K-562 leukemia) was 45.9 nM. The TGI (K-562 leukemia) was over 38500 nM, the GI50 (OVCAR-3 ovarian) was 114 nM and the TGI (OVCAR-3 ovarian) was over 33400 nM. It also gave a GI50 (A549 NSCLC) of 246 nM, a TGI (A549 NSCLC) of over 61800 nM and a GI50 (SR leukemia) of 41.8 nM. For the same molecule, the TGI (SR leukemia) was over 51700 nM, the GI50 (COLO 205 colon) was 257 nM and the TGI (COLO 205 colon) was 7040 nM. The GI50 (SNB-19 CNS) was 293 nM, the TGI (SNB-19 CNS) was over 100000 nM and the GI50 (OVCAR-4 ovarian) was 3450 nM. It also gave a TGI (OVCAR-4 ovarian) of over 68400 nM, a GI50 (SF-295 CNS) of 119 nM and a TGI (SF-295 CNS) of over 41600 nM. It also gave a GI50 (HCT-116 colon) of 159 nM, a TGI (HCT-116 colon) of over 35700 nM and a GI50 (M14 melanoma) of 341 nM. It also gave a TGI (M14 melanoma) of over 100000 nM, a GI50 (HS 578T breast) of 182 nM and a TGI (HS 578T breast) of over 74900 nM. The GI50 (MDA-MB-435) was 28.8 nM, the TGI (MDA-MB-435) was 101 nM and the GI50 (PC-3 prostate) was 286 nM. For the same molecule, the TGI (PC-3 prostate) was over 100000 nM, the GI50 (HT29 colon) was 112 nM and the TGI (HT29 colon) was 13800 nM. For the same molecule, the GI50 (NCI-H226 lung) was 2210 nM, the TGI (NCI-H226 lung) was over 80800 nM and the GI50 (DU-145 prostate) was 329 nM. It also gave a TGI (DU-145 prostate) of over 86500 nM, a GI50 (NCI-H522 lung) of 112 nM and a TGI (NCI-H522 lung) of 5960 nM. It also gave a GI50 (LOX IMVI melanoma) of 274 nM, a TGI (LOX IMVI melanoma) of over 44100 nM and a GI50 (HOP-62 NSCLC) of 530 nM. It also gave a TGI (HOP-62 NSCLC) of over 100000 nM, a GI50 (NCI/ADR-RES ovarian) of 119 nM and a TGI (NCI/ADR-RES ovarian) of over 61300 nM. It also gave a GI50 (SK-MEL-5 melanoma) of 260 nM, a TGI (SK-MEL-5 melanoma) of 15600 nM and a GI50 (NCI-H460 lung) of 237 nM. The TGI (NCI-H460 lung) was over 37200 nM, the GI50 (SK-OV-3 ovarian) was 382 nM and the TGI (SK-OV-3 ovarian) was over 61000 nM. For the same molecule, the GI50 (RPMI-8226 leukemia) was 347 nM, the TGI (RPMI-8226 leukemia) was over 94000 nM and the GI50 (IGROV1 ovarian) was 414 nM. For the same molecule, the TGI (IGROV1 ovarian) was over 69600 nM, the GI50 (RXF 393 renal) was 189 nM and the TGI (RXF 393 renal) was 18100 nM. It also gave a GI50 (SW-620 colon) of 127 nM, a TGI (SW-620 colon) of over 54300 nM and a GI50 (HOP-92 NSCLC) of 4360 nM. The TGI (HOP-92 NSCLC) was 53400 nM, the GI50 (MCF7 breast) was 103 nM and the TGI (MCF7 breast) was over 53200 nM.
